IC50 data for four compounds are collected here from ChEMBL document CHEMBL1131952, “Synthesis of tetrasubstituted bicyclo[3.2.1]octenes as potential inhibitors of influenza virus sialidase” (Bioorg Med Chem Lett, 1999).

One may read the IC50 as the point on the concentration scale where inhibition reaches its midpoint. Read a high IC50 as a need for much substance.

The subject of assay [1] is Influenza A virus. Nature of the assay: Inhibitory activity against sialidase of influenza A. It counts as functional, organism-based.
The test system of assay [2] is Influenza B virus. Nature of the assay: Inhibitory activity against sialidase of influenza B. It counts as functional, organism-based.

Some results are limits rather than exact numbers.

Turning to `CCC(CC)O[C@@H]1C=C(C(=O)O)[C@@H]2CC[C@@]1(NC(C)=O)[C@H]2O`, the 50% inhibitory concentration (IC50) was determined as 80 µM in assay [1] and 340 µM in assay [2].
For `CCC(CC)O[C@@H]1C=C(C(=O)O)[C@@H]2CC[C@@]1(C(=O)O)[C@H]2O`, in that order: above 670 µM and above 670 µM.
Regarding `CCC(CC)O[C@@H]1C=C(C(=O)O)[C@@H]2CC[C@@]1(C(=O)OC)[C@H]2O`, the half-inhibitory concentration (IC50) was 99 µM in assay [1] and 83 µM in assay [2].
The corresponding values for `CC(=O)N[C@H]1[C@H]([C@H](O)[C@H](O)CO)OC(C(=O)O)=C[C@@H]1O` [NEU5AC2EN] are 2.8 µM and 3 µM.
